# “Also recorded” adds a separate entry of the source.
# What was measured:
# Jeko-1 cells [1] = experiment: Sensitivity to ibrutinib by reduction of bioluminescence; assay type: cell-based, human; details: 0.1 nM to 10 μM
# MCL = MCL treated with ibrutinib monotherapy; cited from earlier work
# mantle cell lymphoma = details: MCL patients; cited from earlier work
# RL cells [2] = experiment: MTT assay, sensitivity to ibrutinib; assay type: cell-based; details: Homo sapiens, read-out: IC50, inhibition of proliferation
# RL cells [3] = experiment: Sensitivity to ibrutinib by reduction of bioluminescence; assay type: cell-based, human; details: 0.1 nM to 10 μM
# CART19 cells [4] = experiment: level of circulating CART19 cells under ibrutinib treatment (Example 42); assay type: in vivo; details: data shown in Example 42
# MCL-RL cells = experiment: MCL-RL systemic xenograft model in NSG mice; assay type: in vivo
# [5] = patients; cited from earlier work
# Mino cells = experiment: MTT assay, sensitivity to ibrutinib; assay type: cell-based; details: Homo sapiens, read-out: IC50, inhibition of proliferation
# Jeko-1 cells [6] = experiment: MTT assay, sensitivity to ibrutinib; assay type: cell-based; details: Homo sapiens; Jeko-1, MTT assay; read-out: IC50, inhibition of proliferation
# CART19 cells [7] = details: supra-physiologic concentrations
# ITK = molecular target: T1, ITK (Homo sapiens, UniProt Q08881); experiment: ITK phosphorylation (pITK-Y180) in stimulated CART19 cells; assay type: cell-based
# T1 sequence (Q08881 1-620): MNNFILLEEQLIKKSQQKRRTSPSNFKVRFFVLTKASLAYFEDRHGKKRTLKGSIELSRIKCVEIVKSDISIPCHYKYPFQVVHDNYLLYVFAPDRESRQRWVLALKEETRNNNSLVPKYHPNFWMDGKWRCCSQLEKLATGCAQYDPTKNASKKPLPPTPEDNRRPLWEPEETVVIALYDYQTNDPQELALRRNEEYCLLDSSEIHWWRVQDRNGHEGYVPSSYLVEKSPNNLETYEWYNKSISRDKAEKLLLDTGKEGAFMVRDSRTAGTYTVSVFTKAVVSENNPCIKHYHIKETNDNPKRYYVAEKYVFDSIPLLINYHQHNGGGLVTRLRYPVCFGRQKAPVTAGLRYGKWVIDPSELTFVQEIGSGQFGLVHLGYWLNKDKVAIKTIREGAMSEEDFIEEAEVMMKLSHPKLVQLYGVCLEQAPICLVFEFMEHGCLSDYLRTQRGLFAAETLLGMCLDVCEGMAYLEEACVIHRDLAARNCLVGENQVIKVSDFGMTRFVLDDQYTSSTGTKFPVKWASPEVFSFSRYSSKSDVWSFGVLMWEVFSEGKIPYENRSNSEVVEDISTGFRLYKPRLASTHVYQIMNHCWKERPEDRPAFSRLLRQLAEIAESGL
# From the text: See Dubovsky et al. Blood 122.15(2013):2539-49.
smiles,measurement,setting,value
"C=CC(=O)N1CCC[C@@H](n2nc(-c3ccc(Oc4ccccc4)cc3)c3c(N)ncnc32)C1 [ibrutinib, 1-[(3R)-3-[4-Amino-3-(4-phenoxyphenyl)-1H-pyrazolo[3,4-d]pyrimidin-1-yl]piperidin-1-yl]prop-2-en-1-one]",sensitivity to ibrutinib (reduction of bioluminescence),Jeko-1 cells [1],resistant to ibrutinib treatment
same,median duration of response,MCL,about 17.5 months
same,duration of median response,mantle cell lymphoma,17.5 months
same,patients who do not respond,mantle cell lymphoma,about 30%
same,IC50,RL cells [2],10 nM
same,sensitivity to ibrutinib (reduction of bioluminescence),RL cells [3],sensitive to ibrutinib treatment in a dose-dependent manner
same,level of circulating CART19 cells,CART19 cells [4],increases the level of circulating CART19 cells
same,median overall survival,MCL-RL cells; 25 mg/kg/day,81 days
same,median overall survival,MCL-RL cells; 125 mg/kg/day,100 days
same,effect on tumor burden / tumor growth (bioluminescence),MCL-RL cells; MCL-RL engrafted NSG mice,dose-related sensitivity; also recorded: modestly delayed tumor growth at early time points
same,mean peak concentration in serum,[5],100 to 150 ng/mL
same,IC50,Mino cells,≤ 10 µM
same,IC50,Jeko-1 cells [6],≤ 10 µM
same,effect on CART19 cell functions,CART19 cells [7],inhibition of CART19 cell functions
same,phosphorylated ITK (pITK-Y180),ITK; non-specific stimulation via the TCR,reduction in phosphorylated ITK
same,ITK activation,ITK; specific stimulation via the CAR,did not lead to diminished ITK activation
